This is an account of results in ChEMBL document CHEMBL3627618, “Rethinking the old antiviral drug moroxydine: Discovery of novel analogues as anti-hepatitis C virus (HCV) agents” (Bioorg Med Chem Lett, 2015).

Data set [1] relates to Hepatitis C virus. As to the kind of experiment: Antiviral activity against HCV JFH1 infected in human HuH7-J20 cells assessed as inhibition of viral life cycle by measuring secreted alkaline phosphatase level preincubated with cells for 1 hr followed by viral inoculation for 3 hrs measured at 72 hrs. The settings on record: for EC50: genotype 2a JFH-1, Huh-7. Type of data set: functional, cell-based, Hepacivirus hominis.

Data set [2] is described as follows: Cytotoxicity against human HuH7-J20 cells expressing secreted alkaline phosphatase reporter gene assessed as cell viability incubated for 1 hr by WST-1 assay. The data set is classed as cell-based, Huh-7. Background: A reporter such as luciferase makes a cellular process visible.
The test system of data set [3] is Hepatitis C virus. Nature of the data set: Antiviral activity against HCV JFH1 infected in human HuH7-J20 cells assessed as inhibition of viral life cycle by measuring secreted alkaline phosphatase level preincubated with cells for 1 hr followed by viral inoculation for 3 hrs and fresh drug administration every 24 hrs at 1/10th of initial concentration for 48 hrs measured at 72 hrs. The data set is classed as functional, cell-based, Hepacivirus hominis. As to conditions: genotype 2a JFH-1, Huh-7.

Data set [4] can be described thus: Cytotoxicity against human HuH7-J20 cells expressing secreted alkaline phosphatase reporter gene assessed as cell viability preincubated for 1 hr followed by fresh drug administration every 24 hrs at 1/10th of initial concentration for 48 hrs by WST-1 assay. Type of data set: cell-based, Huh-7.
Data set [5] in a line: Selectivity index, ratio of CC50 for human HuH7-J20 cells expressing secreted alkaline phosphatase reporter gene incubated for 1 hr to EC50 for HCV JFH1 infected in human HuH7-J20 cells preincubated with cells for 1 hr followed by viral inoculation for 3 hrs measured at 72 hrs. On the set-up: species or system Huh-7.
A short description of data set [6]: Selectivity index, ratio of CC50 for human HuH7-J20 cells expressing secreted alkaline phosphatase reporter gene preincubated for 1 hr followed by fresh drug administration every 24 hrs for 48 hrs to EC50 for HCV JFH1 infected in human HuH7-J20 cells preincubated with cells for 1 hr followed by viral inoculation for 3 hrs and fresh drug administration every 24 hrs at 1/10th of initial concentration for 48 hrs measured at 72 hrs. On the set-up: species or system Huh-7.

Data set [7] has as its system Hepatitis C virus. Nature of the data set: Antiviral activity against HCV pseudotyped particles infected in human HuH7 cells assessed as reduction of viral entry preincubated with cells for 1 hr followed by viral inoculation for 3 hrs by luciferase reporter gene assay. The data set is classed as functional, organism-based. As to conditions: Hepacivirus hominis; Huh-7.

Data set [8] in a line: Cytotoxicity against human HuH7 assessed as cell viability after 24 hrs by WST-1 assay. The settings on record: huh-7, 24 h. The data set is classed as cell-based. (Tetrazolium dyes change colour on reduction, which living cells bring about.)
Data set [9] can be described thus: Cytotoxicity against human HuH7-J20 cells expressing secreted alkaline phosphatase reporter gene assessed as cell viability at 10 uM incubated for 1 hr by WST-1 assay. As to conditions: huh-7, 1 h. The data set is classed as cell-based.
Data set [10] has as its system Hepatitis C virus. Nature of the data set: Antiviral activity against HCV JFH1 infected in human HuH7-J20 cells assessed as inhibition of viral life cycle by measuring secreted alkaline phosphatase level […] preincubated with cells for 1 hr followed by viral inoculation for 3 hrs measured at 72 hrs relative to control. Type of data set: functional. The settings on record: Hepacivirus hominis; genotype 2a JFH-1; Huh-7.

Data set [11] deals with Hepatitis C virus. Nature of the data set: Antiviral activity against HCV JFH1 sub genomic replicon infected in human HuH7 cells assessed as inhibition of viral RNA replication at 10 uM measured after 24 hrs by luciferase reporter gene assay. Type of data set: functional, Hepacivirus hominis. As to conditions: genotype 2a JFH-1, Huh-7, 24 h.
For data set [12], the system named is Hepatitis C virus. As to the kind of experiment: Ratio of EC50 for HCV JFH1 infected in human HuH7-J20 cells preincubated with cells for 1 hr followed by viral inoculation for 3 hrs measured at 72 hrs to EC50 for HCV JFH1 infected in human HuH7-J20 cells preincubated with cells for 1 hr followed by viral inoculation for 3 hrs and fresh drug administration every 24 hrs at 1/10th of initial concentration for 48 hrs measured at 72 hrs. Type of data set: functional, Hepacivirus hominis, genotype 2a JFH-1, Huh-7.

As usually defined, the EC50 is the midpoint of the concentration-response curve. For orientation: CC50 means the concentration giving 50% cytotoxicity. The term inhibition denotes how much of the control response was suppressed.

Active and inactive are the calls of the source. No cut-off for these calls is given here.

`Cl.N=C(NC(=O)N1CCN(c2ccc(C34CC5CC(CC(C5)C3)C4)cc2)CC1)Nc1ccc(Cl)cc1`: the results for the EC50 with Hepatitis C virus [1] and with Hepatitis C virus [3] were 9.8 µM and 13.9 µM, respectively. Besides, in [2], the CC50 at 1 h amounted to 73 µM. For the same compound, the CC50 at 48 h in data set [4] is 77 µM. For the same compound, the “Ratio CC50/EC50” value in data set [5] is recorded as 7.45; in data set [6], 5.54. Further, the outcome in the data set on Hepatitis C virus [7] was inactive. Also, the Activity entry in data set [8] is “Non-toxic”.

Regarding `Cl.N=C(N)NC(=O)N1CCOCC1`, the Activity entry in data set [9] was “Non-toxic”.

Turning to `Cl.N=C(N)NC(=O)NCCCCN`, in data set [9], the Activity result was “Non-toxic”.

`N=C(N)NC(=N)Nc1ccccc1`: the inhibition result in the data set on Hepatitis C virus [10] was “inactive”.

With `N=C(N)NC(=N)Nc1ccc(F)cc1`, the inhibition result in the data set on Hepatitis C virus [10] is “inactive”.

Take `CCOC(=O)CNC(=O)NC(=N)N.Cl`: in [9], the Activity entry is recorded as “Non-toxic”.

As to `NC(=O)c1ncn([C@@H]2O[C@H](CO)[C@@H](O)[C@H]2O)n1` [RIBAVIRIN], the values for the EC50 in the data set on Hepatitis C virus [1] and in the data set with Hepatitis C virus [3] were 30.4 µM and 33.5 µM, respectively. Moreover, the CC50 at 1 h in [2] was greater than 30 µM. Moreover, the CC50 at 48 h in data set [4] turned out to be 30.5 µM. The “Ratio CC50/EC50” value was greater than 1 in data set [5] and 0.91 in [6].

Regarding `N=C(N)NC(=N)N1CCOCC1`, the inhibition result in the data set on Hepatitis C virus [1] (Hepacivirus hominis, genotype 2a JFH-1, Huh-7) is “inactive”.

Consider `CCOC(=O)CNC(=O)NC(=N)NC(=O)OC(C)(C)C`, for which, in data set [9], the Activity result is “Non-toxic”.

Turning to `Cl.N=C(NC(=O)N1CCN(c2cc(Cl)cc(Cl)c2)CC1)Nc1ccc(Cl)cc1`, the EC50 with Hepatitis C virus [1] worked out at 10.4 µM; in the data set with Hepatitis C virus [3], 1.69 µM. Moreover, the CC50 at 1 h in data set [2] came out at 63 µM. In addition, the cytotoxic concentration (CC50) at 48 h in [4] was found to be 34.2 µM. For the same compound, the “Ratio CC50/EC50” value came to 6.06 in data set [5] and 20.2 in data set [6]. For the same compound, in the data set on Hepatitis C virus [7], the outcome was inactive. In addition, the Activity result in data set [8] was “Non-toxic”.

Consider `Cl.N=C(NC(=O)N1CCN(c2ccccc2)CC1)Nc1ccccc1`, for which the EC50 with Hepatitis C virus [1] came out at 59.5 µM; in the data set on Hepatitis C virus [3], 8.7 µM. In addition, in data set [2], the CC50 at 1 h is greater than 30 µM. Moreover, the CC50 at 48 h in data set [4] is greater than 30 µM. The “Ratio CC50/EC50” value is recorded as 0.5 in data set [5] and greater than 3.4 in data set [6]. Also, the outcome with Hepatitis C virus [7] was inactive.

Turning to `Cl.N=C(NCc1ccccc1)NC(=O)N1CCN(c2ccccc2)CC1`, in [9], the Activity entry is “Non-toxic”. Also, the outcome in the data set on Hepatitis C virus [7] was inactive.

As for `Cl.N=C(NC(=O)N1CCN(c2ccc([N+](=O)[O-])cc2)CC1)Nc1ccc(Cl)cc1`, the Activity result in data set [9] was “Non-toxic”. The result in the data set with Hepatitis C virus [7] was inactive.

With `Cc1ccc(N2CCN(C(=O)NC(=N)Nc3ccc(Cl)cc3)CC2)cc1.Cl`, in data set [9], the Activity entry is “Non-toxic”. Moreover, in the data set on Hepatitis C virus [7], the outcome was inactive.

With `Cl.N=C(NCc1ccccc1)NC(=O)N1CCOCC1`, in data set [9], the Activity result is “Non-toxic”. Besides, the outcome in the data set with Hepatitis C virus [7] was inactive.

`C=CCNC(=O)NC(=N)NCc1ccccc1.Cl`: the Activity result in data set [9] is “Non-toxic”. Besides, the result in the data set on Hepatitis C virus [7] was inactive.

As for `N=C(N)NC(=N)N1CCN(c2ccccc2)CC1`, the inhibition result in the data set on Hepatitis C virus [10] was “inactive”.

For `CC(C)(C)OC(=O)/N=C(\NCc1ccccc1)NC(=O)N1CCOCC1`, the Activity result in data set [9] is reported as “Non-toxic”.

For the compound `Cl.N=C(N)NC(=O)NCc1ccccc1`, the 50% effective concentration (EC50) in the data set on Hepatitis C virus [1] turned out to be 52 µM; in the data set on Hepatitis C virus [3], 35.3 µM. Besides, the CC50 at 1 h in [2] is 324 µM. The CC50 at 48 h in data set [4] amounted to 325 µM. Further, the entries for the “Ratio CC50/EC50” value in data set [5] and in data set [6] were 6.23 and 9.19, respectively.

Consider `Cl.N=C(NCc1ccccc1)NC(=O)N1CCCC1`, for which the Activity entry in data set [9] was “Non-toxic”. Further, in the data set on Hepatitis C virus [7], the result was inactive.

With `Cl.N=C(NCc1ccccc1)NC(=O)N1CCN(c2ccc(Cl)cc2)CC1`, the EC50 in the data set on Hepatitis C virus [1] came out at 45.7 µM; in the data set on Hepatitis C virus [3], 2.41 µM. Besides, in data set [2], the CC50 at 1 h worked out at 64 µM. In data set [4], the CC50 at 48 h worked out at 34.7 µM. Further, the “Ratio CC50/EC50” value in data set [5] is 1.4; in data set [6] it was 14.4. In addition, the outcome with Hepatitis C virus [7] was inactive. The inhibition at 10 µM with Hepatitis C virus [11] is no more than 50%. Besides, the Activity entry in data set [8] was “Non-toxic”.

Turning to `Cl.N=C(NCc1ccccc1)NC(=O)N1CCN(c2ccc(F)cc2)CC1`, in [9], the Activity entry is listed as “Non-toxic”. In addition, the outcome with Hepatitis C virus [7] was inactive.

For `CC(C)(C)OC(=O)/N=C(\NCc1ccccc1)NC(=O)N1CCN(c2ccccc2)CC1`, the Activity result in [9] is “Non-toxic”.

Take `CC(C)(C)OC(=O)NC(=N)NC(=O)NCc1ccccc1`: the EC50 in the data set with Hepatitis C virus [1] was determined as 21.9 µM; with Hepatitis C virus [3] it was 6.17 µM. For the same compound, the CC50 at 1 h in [2] worked out at 92.9 µM. In [4], the CC50 at 48 h was determined as 49.3 µM. For the same compound, the figures for the “Ratio CC50/EC50” value in data set [5] and in data set [6] were 4.25 and 7.99, respectively. In the data set with Hepatitis C virus [12], the “Ratio EC50” value was found to be 3. In addition, in data set [8], the Activity entry was “Non-toxic”.

Consider `Cc1ccc(N2CCN(C(=O)NC(=N)Nc3ccccc3)CC2)cc1.Cl`, for which the EC50 in the data set with Hepatitis C virus [1] was found to be 9.35 µM; with Hepatitis C virus [3] it was 4.7 µM. For the same compound, the CC50 at 1 h in data set [2] turned out to be 26.4 µM. The CC50 at 48 h in data set [4] is 21 µM. In addition, the entries for the “Ratio CC50/EC50” value in data set [5] and in data set [6] were 2.82 and 4.4, respectively. Also, the result in the data set on Hepatitis C virus [7] was inactive.

For `Cl.N=C(NC(=O)N1CCN(c2ccccc2)CC1)Nc1ccc(Cl)cc1`, the EC50 in the data set with Hepatitis C virus [1] came out at 11.2 µM; in the data set on Hepatitis C virus [3], 1.3 µM. Moreover, in data set [2], the cytotoxic concentration (CC50) at 1 h is greater than 30 µM. The CC50 at 48 h in data set [4] stood at 39.7 µM. Further, the entries for the “Ratio CC50/EC50” value in [5] and in data set [6] were greater than 2.68 and 30.4, respectively. The result in the data set with Hepatitis C virus [7] was inactive. In the data set on Hepatitis C virus [11], the inhibition at 10 µM was no more than 50%. Also, the Activity result in data set [8] is listed as “Non-toxic”.

As to `N=C(N)NC(=N)NCc1ccccc1`, the inhibition entry with Hepatitis C virus [10] is “inactive”.

Turning to `Cl.N=C(NC(=O)N1CCN(c2ccc([N+](=O)[O-])cc2)CC1)Nc1ccccc1`, the Activity entry in data set [9] was “Non-toxic”. In addition, the outcome with Hepatitis C virus [7] was inactive.

For the compound `Cl.N=C(NC(=O)N1CCN(c2ccc(Cl)cc2)CC1)Nc1ccccc1`, in [9], the Activity result was “Non-toxic”. For the same compound, the outcome with Hepatitis C virus [7] was inactive.
